According to patent US20260257998A1, “ERR MODULATORS” (University of Health Sciences and Pharmacy in St. Louis, priority 2023, published 2026):

Assays:
ERRγ = target: T1, ERRγ (Homo sapiens, UniProt P62508); test: ERRE luciferase reporter assay in HEK293 cells transfected with pcDNA3.1 ERRγ; assay type: cell-based; parameters: key to EC50 (ERRγ): ***<1 μM; **1-5 μM; *>5 μM; i.a. (inactive); settings: 24 hours treatment, luciferase activity
T1 construct: expressed in transfected cells; host or cells: HEK293
T1 sequence (P62508 1-458): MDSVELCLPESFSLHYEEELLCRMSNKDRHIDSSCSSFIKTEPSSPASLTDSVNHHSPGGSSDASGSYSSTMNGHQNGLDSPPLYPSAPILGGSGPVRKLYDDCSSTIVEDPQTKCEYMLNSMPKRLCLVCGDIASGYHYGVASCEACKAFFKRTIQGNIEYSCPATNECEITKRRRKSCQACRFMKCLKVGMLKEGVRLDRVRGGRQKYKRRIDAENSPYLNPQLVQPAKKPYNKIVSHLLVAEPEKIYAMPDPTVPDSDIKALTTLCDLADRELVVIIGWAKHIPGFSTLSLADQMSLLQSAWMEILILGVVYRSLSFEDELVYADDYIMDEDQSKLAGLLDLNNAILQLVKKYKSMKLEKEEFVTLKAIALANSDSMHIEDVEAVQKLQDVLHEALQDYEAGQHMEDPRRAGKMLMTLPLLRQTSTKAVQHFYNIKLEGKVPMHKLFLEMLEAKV
Protocol: (§1) HEK293 cells were maintained in Dulbecco's modified Eagles medium (DMEM) supplemented with 10% fetal bovine serum at 37° C. under 5% CO2. […] Cells were transfected with ERRE reporter construct and pcDNA3.1 ERRα or ERRγ. Twenty-four-hours post-transfection, the cells were treated with vehicle or compound (various concentrations) for 24 hours (4 wells per dose). Luciferase activity was measured using the One-Glo Tox luciferase reporter assay system (Promega) and […] were calculated using GraphPad Prism software.

ERRα = target: T2, ERRα (Homo sapiens, UniProt P11474); test: ERRE luciferase reporter assay in HEK293 cells transfected with pcDNA3.1 ERRα; assay type: cell-based; parameters: key to EC50 (ERRα): ***<1 μM; **1-5 μM; *>5 μM; i.a. (inactive); settings: 24 hours treatment, luciferase activity
T2 construct: expressed in transfected cells; host or cells: HEK293
T2 sequence (P11474 1-423): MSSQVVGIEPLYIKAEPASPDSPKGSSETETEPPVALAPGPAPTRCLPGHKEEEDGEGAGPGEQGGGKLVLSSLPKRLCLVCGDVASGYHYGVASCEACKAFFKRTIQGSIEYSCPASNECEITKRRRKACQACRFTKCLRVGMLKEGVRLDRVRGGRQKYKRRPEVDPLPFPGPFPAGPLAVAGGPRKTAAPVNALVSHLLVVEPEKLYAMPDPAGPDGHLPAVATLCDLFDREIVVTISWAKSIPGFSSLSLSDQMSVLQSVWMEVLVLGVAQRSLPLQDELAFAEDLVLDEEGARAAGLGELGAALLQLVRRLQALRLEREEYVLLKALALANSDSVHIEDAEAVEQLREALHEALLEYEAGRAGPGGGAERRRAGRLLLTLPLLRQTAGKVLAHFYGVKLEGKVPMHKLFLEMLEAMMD
Protocol: as §1

| EC50 (ERRγ) | EC50 (ERRα) | EC50 (ERRα) (ERRα) | EC50 (ERRγ) (ERRγ) | Structure (SMILES) |
| --- | --- | --- | --- | --- |
| > 5 µM | > 5 µM |  |  | Brc1cccc(C2=NNC(c3ccc4ccccc4c3)C2)c1 (stereo not drawn) [Entry 86, 3-(3-bromophenyl)-5-(naphthalen-2-yl)-4,5-dihydro-1H-pyrazole] |
| > 5 µM | 1 to 5 µM |  |  | Oc1cccc(C2CC(c3ccc(F)cc3)=NN2)c1 (stereo not drawn) [Entry 87, 3-(3-(4-fluorophenyl)-4,5-dihydro-1H-pyrazol-5-yl)phenol] |
| 1 to 5 µM |  | i.a. |  | Fc1cccc(C2=NNC(c3ccc4ccccc4c3)C2)c1 (stereo not drawn) [Entry 88, 3-(3-fluorophenyl)-5-(naphthalen-2-yl)-4,5-dihydro-1H-pyrazole] |
| > 5 µM | > 5 µM |  |  | Oc1ccc(C2=NNC(c3ccc(Br)cc3)C2)cc1 (stereo not drawn) [Entry 89, 4-(5-(4-bromophenyl)-4,5-dihydro-1H-pyrazol-3-yl)phenol] |
| 1 to 5 µM | 1 to 5 µM |  |  | Oc1cccc(C2CC(c3ccccc3F)=NN2)c1 (stereo not drawn) [Entry 90, 3-(3-(2-fluorophenyl)-4,5-dihydro-1H-pyrazol-5-yl)phenol] |
|  |  | i.a. | i.a. | Fc1ccc(C2=NNC(c3ccc4ccccc4c3)C2)cc1 (stereo not drawn) [Entry 91, 3-(4-fluorophenyl)-5-(naphthalen-2-yl)-4,5-dihydro-1H-pyrazole] |
| 1 to 5 µM | > 5 µM |  |  | Oc1ccccc1C1=NNC(c2ncc[nH]2)C1 (stereo not drawn) [Entry 92, 2-(5-(1H-imidazol-2-yl)-4,5-dihydro-1H-pyrazol-3-yl)phenol] |
|  |  | i.a. | i.a. | Oc1ccc2cc(C3CC(c4ccc(Br)cc4)=NN3)ccc2c1 (stereo not drawn) [Entry 93, 6-(3-(4-bromophenyl)-4,5-dihydro-1H-pyrazol-5-yl)naphthalen-2-ol] |
|  | 1 to 5 µM |  | i.a. | Oc1cccc(C2=NNC(c3ccc4cc(O)ccc4c3)C2)c1 (stereo not drawn) [Entry 94, 6-(3-(3-hydroxyphenyl)-4,5-dihydro-1H-pyrazol-5-yl)naphthalen-2-ol] |
| 1 to 5 µM | < 1 µM |  |  | Oc1ccccc1C1=NNC(c2ccc(Br)cc2)C1 (stereo not drawn) [Entry 95, 2-(5-(4-bromophenyl)-4,5-dihydro-1H-pyrazol-3-yl)phenol] |
| > 5 µM | 1 to 5 µM |  |  | Oc1cccc(C2=NNC(c3ccccc3O)C2)c1 (stereo not drawn) [Entry 96, 2-(3-(3-hydroxyphenyl)-4,5-dihydro-1H-pyrazol-5-yl)phenol] |
| 1 to 5 µM | 1 to 5 µM |  |  | Oc1cccc(C2CC(c3cccc(Br)c3)=NN2)c1 (stereo not drawn) [Entry 97, 3-(3-(3-bromophenyl)-4,5-dihydro-1H-pyrazol-5-yl)phenol] |
|  |  | i.a. | i.a. | Oc1ccc2cc(C3CC(c4ccc(Cl)cc4)=NN3)ccc2c1 (stereo not drawn) [Entry 98, 6-(3-(4-chlorophenyl)-4,5-dihydro-1H-pyrazol-5-yl)naphthalen-2-ol] |
| 1 to 5 µM | 1 to 5 µM |  |  | Oc1cccc(C2=NNC(c3ccc4ccccc4c3)C2)c1 (stereo not drawn) [Entry 99, 3-(5-(naphthalen-2-yl)-4,5-dihydro-1H-pyrazol-3-yl)phenol] |
| 1 to 5 µM | 1 to 5 µM |  |  | Oc1ccc(C2CC(c3cccc(O)c3)=NN2)cc1 (stereo not drawn) [Entry 100, 3-(5-(4-hydroxyphenyl)-4,5-dihydro-1H-pyrazol-3-yl)phenol] |
| < 1 µM | < 1 µM |  |  | Clc1ccccc1C1=NNC(c2ccc3ccccc3c2)C1 (stereo not drawn) [Entry 101, 3-(2-chlorophenyl)-5-(naphthalen-2-yl)-4,5-dihydro-1H-pyrazole] |
| > 5 µM | > 5 µM |  |  | Oc1cccc(C2=NNC(c3cnc[nH]3)C2)c1 (stereo not drawn) [Entry 102, 3-(5-(1H-imidazol-5-yl)-4,5-dihydro-1H-pyrazol-3-yl)phenol] |
|  |  | i.a. | i.a. | Oc1ccccc1C1CC(c2ccccc2C(F)(F)F)=NN1 (stereo not drawn) [Entry 103, 2-(3-(2-(trifluoromethyl)phenyl)-4,5-dihydro-1H-pyrazol-5-yl)phenol] |

| EC50 (ERRγ) | EC50 (ERRα) | EC50 (ERRα) (ERRα) | EC50 (ERRγ) (ERRγ) | Structure (SMILES) |
| --- | --- | --- | --- | --- |
|  |  | i.a. | i.a. | Clc1ccc(C2=NNC(c3ccc4ccccc4c3)C2)cc1 (stereo not drawn) [Entry 104, 3-(4-chlorophenyl)-5-(naphthalen-2-yl)-4,5-dihydro-1H-pyrazole] |
| > 5 µM | > 5 µM |  |  | Cc1nc[nH]c1C1CC(c2ccc(Br)cc2)=NN1 (stereo not drawn) [Entry 105, 3-(4-bromophenyl)-5-(4-methyl-1H-imidazol-5-yl)-4,5-dihydro-1H-pyrazole] |
| < 1 µM | < 1 µM |  |  | Fc1ccccc1C1=NNC(c2ccc3ccccc3c2)C1 (stereo not drawn) [Entry 106, 3-(2-fluorophenyl)-5-(naphthalen-2-yl)-4,5-dihydro-1H-pyrazole] |
| 1 to 5 µM | 1 to 5 µM |  |  | Oc1ccc2cc(C3CC(c4ccccc4F)=NN3)ccc2c1 (stereo not drawn) [Entry 107, 6-(3-(2-fluorophenyl)-4,5-dihydro-1H-pyrazol-5-yl)naphthalen-2-ol] |
| 1 to 5 µM | 1 to 5 µM |  |  | Oc1cccc(C2=NNC(c3ccc(Br)cc3)C2)c1 (stereo not drawn) [Entry 108, 3-(5-(4-bromophenyl)-4,5-dihydro-1H-pyrazol-3-yl)phenol] |
|  |  | i.a. | i.a. | Fc1ccccc1C1=NNC(c2ccc(Cl)c(Cl)c2)C1 (stereo not drawn) [Entry 110, 5-(3,4-dichlorophenyl)-3-(2-fluorophenyl)-4,5-dihydro-1H-pyrazole] |
|  |  | i.a. | i.a. | Clc1ccc(C2CC(c3ccccc3Br)=NN2)cc1Cl (stereo not drawn) [Entry 111, 3-(2-bromophenyl)-5-(3,4-dichlorophenyl)-4,5-dihydro-1H-pyrazole] |
|  |  | i.a. | i.a. | Clc1ccc(C2=NNC(c3ccc(Br)cc3)C2)cc1 (stereo not drawn) [Entry 112, 5-(4-bromophenyl)-3-(4-chlorophenyl)-4,5-dihydro-1H-pyrazole] |
|  |  | i.a. | i.a. | Brc1ccc(C2=NNC(c3ccc(Br)cc3)C2)cc1 (stereo not drawn) [Entry 113, 3,5-bis(4-bromophenyl)-4,5-dihydro-1H-pyrazole] |
|  |  | i.a. | i.a. | FC(F)(F)c1ccc(C2=NNC(c3ccc(Br)cc3)C2)cc1 (stereo not drawn) [Entry 114, 5-(4-bromophenyl)-3-(4-(trifluoromethyl)phenyl)-4,5-dihydro-1H-pyrazole] |
|  |  | i.a. | i.a. | CC(C)(C)c1cc(C2CC(c3ccc(Br)cc3)=NN2)c(O)c(C(C)(C)C)c1 (stereo not drawn) [Entry 115, 2-(3-(4-bromophenyl)-4,5-dihydro-1H-pyrazol-5-yl)-4,6-di-tert-butylphenol] |
|  |  | i.a. | i.a. | Oc1c(Br)cc(Br)cc1C1CC(c2ccc3ccccc3c2)=NN1 (stereo not drawn) [Entry 116, 2,4-dibromo-6-(3-(naphthalen-2-yl)-4,5-dihydro-1H-pyrazol-5-yl)phenol] |
|  |  | i.a. | i.a. | COc1ccc(C2=NNC(c3cc(Br)cc(Br)c3O)C2)cc1 (stereo not drawn) [Entry 117, 2,4-dibromo-6-(3-(4-methoxyphenyl)-4,5-dihydro-1H-pyrazol-5-yl)phenol] |
|  |  | i.a. | i.a. | Oc1cc(Br)ccc1C1CC(c2ccc(Br)cc2)=NN1 (stereo not drawn) [Entry 118, 5-bromo-2-(3-(4-bromophenyl)-4,5-dihydro-1H-pyrazol-5-yl)phenol] |
|  |  | i.a. | i.a. | Oc1cc(Br)ccc1C1CC(c2ccc(C(F)(F)F)cc2)=NN1 (stereo not drawn) [Entry 119, 5-bromo-2-(3-(4-(trifluoromethyl)phenyl)-4,5-dihydro-1H-pyrazol-5-yl)phenol] |
| > 5 µM | > 5 µM |  |  | Oc1ccccc1C1=NNC(c2ccc(Br)cc2O)C1 (stereo not drawn) [Entry 120, 5-bromo-2-(3-(2-hydroxyphenyl)-4,5-dihydro-1H-pyrazol-5-yl)phenol] |
| 1 to 5 µM | 1 to 5 µM |  |  | Oc1ccccc1C1CC(c2cccc(Cl)c2)=NN1 (stereo not drawn) [Entry 142, 2-(3-(3-chlorophenyl)-4,5-dihydro-1H-pyrazol-5-yl)phenol] |

| Structure (SMILES) | EC50 (ERRγ) | EC50 (ERRα) | EC50 (ERRα) (ERRα) | EC50 (ERRγ) (ERRγ) |
| --- | --- | --- | --- | --- |
| Oc1ccccc1C1=NNC(c2c[nH]cn2)C1 (stereo not drawn) [Entry 109, 2-(5-(1H-imidazol-4-yl)-4,5-dihydro-1H-pyrazol-3-yl)phenol] |  |  | i.a. | i.a. |
